# Measured values taken from US10336732B2, “1-heterocyclyl isochromanyl compounds and analogs for treating CNS disorders” (Sunovion Pharmaceuticals Inc., priority 2015, dated 2019).
# Tested on: mice
# Assay: Neuropharmacological assay (SmartCube), behavioral signature of compound-treated mice
# Assay type: in vivo
# Details: i.p. 15 min before behavioral test, most efficacious dose(s) of 3 doses
# Summary of the method: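 Mice received compound i.p. in NMP/PEG/propylene glycol vehicle at 3 doses, 15 min before testing. Video-captured behavior was algorithmically compared with a reference-drug signature database.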
Compound,AD: ADHD (probability that behavioral signature matches class),AG: analgesic (probability that behavioral signature matches class),AX: anxiolytic (probability that behavioral signature matches class),CE: cognitive enhancer (probability that behavioral signature matches class),DP: anti-depressant (probability that behavioral signature matches class),HA: hallucinogen (probability that behavioral signature matches class),MS: mood stabilizer (probability that behavioral signature matches class),PS: anti-psychotic (probability that behavioral signature matches class),SD: sedative hypnotic (probability that behavioral signature matches class),UN: uncharacterized CNS activity (probability that behavioral signature matches class)
"N#Cc1ccc2c(c1)[C@H]([C@H]1CCCN1)OCC2 [Compound I-41, (R)-1-((R)-pyrrolidin-2-yl)isochroman-7-carbonitrile]",+ (LOQ ≤ + <5%),++ (5% ≤ ++ <25%),++ (5% ≤ ++ <25%),++ (5% ≤ ++ <25%),+++ (25% ≤ +++ <50%),+ (LOQ ≤ + <5%),++ (5% ≤ ++ <25%),++ (5% ≤ ++ <25%),++ (5% ≤ ++ <25%),+ (LOQ ≤ + <5%)
"Clc1ccc2c(c1)CCO[C@H]2[C@@H]1CCCN1 [Compound I-34, (S)-2-((R)-6-chloroisochroman-1-yl)pyrrolidine]",+ (LOQ ≤ + <5%),++ (5% ≤ ++ <25%),++ (5% ≤ ++ <25%),++ (5% ≤ ++ <25%),++ (5% ≤ ++ <25%),+ (LOQ ≤ + <5%),+ (LOQ ≤ + <5%),++ (5% ≤ ++ <25%),++ (5% ≤ ++ <25%),+++ (25% ≤ +++ <50%)
"c1c2c(cc3c1OCO3)[C@H]([C@@H]1CCCN1)OCC2 [Compound I-54, (S)-2-((R)-7,8-dihydro-5H-[1,3]dioxolo[4,5-g]isochromen-5-yl)pyrrolidine]",+ (LOQ ≤ + <5%),++ (5% ≤ ++ <25%),+++ (25% ≤ +++ <50%),++ (5% ≤ ++ <25%),+++ (25% ≤ +++ <50%),+ (LOQ ≤ + <5%),++ (5% ≤ ++ <25%),++ (5% ≤ ++ <25%),+ (LOQ ≤ + <5%),+ (LOQ ≤ + <5%)
"C[C@@]1([C@H]2CCCN2)OCc2cc(F)ccc21 [Compound I-124, (R)-2-((R)-5-fluoro-1-methyl-1,3-dihydroisobenzofuran-1-yl)pyrrolidine]",+ (LOQ ≤ + <5%),+ (LOQ ≤ + <5%),+ (LOQ ≤ + <5%),+ (LOQ ≤ + <5%),+ (LOQ ≤ + <5%),+ (LOQ ≤ + <5%),+ (LOQ ≤ + <5%),+ (LOQ ≤ + <5%),+ (LOQ ≤ + <5%),+ (LOQ ≤ + <5%)
"CC1(C)CN[C@H]([C@@H]2OCCc3ccccc32)C1 [Compound I-59, (S)-2-((R)-isochroman-1-yl)-4,4-dimethylpyrrolidine]",+ (LOQ ≤ + <5%),+ (LOQ ≤ + <5%),++ (5% ≤ ++ <25%),++ (5% ≤ ++ <25%),++ (5% ≤ ++ <25%),+ (LOQ ≤ + <5%),++ (5% ≤ ++ <25%),++ (5% ≤ ++ <25%),+ (LOQ ≤ + <5%),+ (LOQ ≤ + <5%)
"Fc1ccc2c(c1)CCO[C@H]2[C@@H]1COCCN1 [Compound I-78, (S)-3-((R)-6-fluoroisochroman-1-yl)morpholine]",+ (LOQ ≤ + <5%),++ (5% ≤ ++ <25%),+++ (25% ≤ +++ <50%),++ (5% ≤ ++ <25%),++ (5% ≤ ++ <25%),+ (LOQ ≤ + <5%),+ (LOQ ≤ + <5%),++ (5% ≤ ++ <25%),+ (LOQ ≤ + <5%),+ (LOQ ≤ + <5%)
"Fc1ccc2c(c1)CO[C@H]2[C@H]1CCN1 [Compound I-128, (R)-2-((R)-5-fluoro-1,3-dihydroisobenzofuran-1-yl)azetidine]",+ (LOQ ≤ + <5%),++ (5% ≤ ++ <25%),++ (5% ≤ ++ <25%),+ (LOQ ≤ + <5%),++ (5% ≤ ++ <25%),+ (LOQ ≤ + <5%),+ (LOQ ≤ + <5%),++++ (50% ≤ ++++),+ (LOQ ≤ + <5%),+ (LOQ ≤ + <5%)
"Fc1ccc2c(c1)CO[C@@H]2[C@@H]1CCN1 [Compound I-126, (S)-2-((S)-5-fluoro-1,3-dihydroisobenzofuran-1-yl)azetidine]",+ (LOQ ≤ + <5%),++ (5% ≤ ++ <25%),++ (5% ≤ ++ <25%),++ (5% ≤ ++ <25%),+++ (25% ≤ +++ <50%),+ (LOQ ≤ + <5%),+ (LOQ ≤ + <5%),+++ (25% ≤ +++ <50%),++ (5% ≤ ++ <25%),++ (5% ≤ ++ <25%)
"Cc1ccc2c(c1)[C@@H]([C@H]1CCCN1)OCC2 [Compound I-27, (R)-2-((S)-7-methylisochroman-1-yl)pyrrolidine]",+ (LOQ ≤ + <5%),++ (5% ≤ ++ <25%),+++ (25% ≤ +++ <50%),++ (5% ≤ ++ <25%),++ (5% ≤ ++ <25%),+ (LOQ ≤ + <5%),++ (5% ≤ ++ <25%),++ (5% ≤ ++ <25%),+ (LOQ ≤ + <5%),+ (LOQ ≤ + <5%)

# Same assay, conditions: i.p. 15 min before behavioral test, most efficacious dose(s) of 3 doses
row,Compound,XG: anxiogenic (probability that behavioral signature matches class)
1,"N#Cc1ccc2c(c1)[C@H]([C@H]1CCCN1)OCC2 [Compound I-41, (R)-1-((R)-pyrrolidin-2-yl)isochroman-7-carbonitrile]",+ (LOQ ≤ + <5%)
2,"Clc1ccc2c(c1)CCO[C@H]2[C@@H]1CCCN1 [Compound I-34, (S)-2-((R)-6-chloroisochroman-1-yl)pyrrolidine]",+ (LOQ ≤ + <5%)
3,"c1c2c(cc3c1OCO3)[C@H]([C@@H]1CCCN1)OCC2 [Compound I-54, (S)-2-((R)-7,8-dihydro-5H-[1,3]dioxolo[4,5-g]isochromen-5-yl)pyrrolidine]",+ (LOQ ≤ + <5%)
4,"C[C@@]1([C@H]2CCCN2)OCc2cc(F)ccc21 [Compound I-124, (R)-2-((R)-5-fluoro-1-methyl-1,3-dihydroisobenzofuran-1-yl)pyrrolidine]",+ (LOQ ≤ + <5%)
5,"CC1(C)CN[C@H]([C@@H]2OCCc3ccccc32)C1 [Compound I-59, (S)-2-((R)-isochroman-1-yl)-4,4-dimethylpyrrolidine]",+ (LOQ ≤ + <5%)
6,"Fc1ccc2c(c1)CCO[C@H]2[C@@H]1COCCN1 [Compound I-78, (S)-3-((R)-6-fluoroisochroman-1-yl)morpholine]",+ (LOQ ≤ + <5%)
7,"Fc1ccc2c(c1)CO[C@H]2[C@H]1CCN1 [Compound I-128, (R)-2-((R)-5-fluoro-1,3-dihydroisobenzofuran-1-yl)azetidine]",+ (LOQ ≤ + <5%)
8,"Fc1ccc2c(c1)CO[C@@H]2[C@@H]1CCN1 [Compound I-126, (S)-2-((S)-5-fluoro-1,3-dihydroisobenzofuran-1-yl)azetidine]",+ (LOQ ≤ + <5%)
9,"Cc1ccc2c(c1)[C@@H]([C@H]1CCCN1)OCC2 [Compound I-27, (R)-2-((S)-7-methylisochroman-1-yl)pyrrolidine]",+ (LOQ ≤ + <5%)
